Results on six compounds are retold here after US8211890B2, “5-amino-2-(1-hydroxy-ethyl)-tetrahydropyran derivatives” (Actelion Pharmaceuticals, priority 2008, dated 2012).

A word on the inhibition: it is the percentage by which the read-out fell short of the control. A higher inhibition goes with a strong effect. As usually defined, the MIC is the lowest concentration found to suppress growth. A high value points to a need for much substance.

The target in one data set is hERG K+ channel (Homo sapiens, UniProt Q12809). Description: In vitro blocking of hERG K+ channels (QPatch automated patch-clamp, CHO-K1 cells). Type of data set: cell-based. Conditions: pH 7.4, at 10 μM, CHOhERG cells, 4 minutes of stimulation, average block on two cells. The method, then:
hERG K^+ channels have been cloned from human heart and recombinant channels are stably expressed in CHO-K1 cells (CHOhERG). These cells have been purchased from bSys GmbH (CH-4052 Basel, Switzerland) and are grown in 150 mL culture flasks at 37° C. in 5% CO2. When the cells are ˜100% confluent, they are detached with 0.25% trypsin-EDTA solution and placed in the cell preparation unit of a QPatch automated patch-clamp robot (Sophion Bioscience A/S, 2750 Ballerup, Denmark). Currents through the hERG K^+ channels (IKhERG) are elicited using the following buffer solutions and voltage protocol: • extracellular solution (in mM): [NaCl]=150; [KCl]=4; [CaCl2]=1.2; [MgCl2]=1; [HEPES]=10; pH adjusted to 7.4 with NaOH; • intracellular solution (in mM): [KCl]=140; [NaCl]=10; [MgCl2]=1; [HEPES]=10; [EGTA]=5; [Mg-ATP]=5; […] After the cells have stabilized for a few minutes and the currents are steady, the amplitude of IKhERG is recorded under control conditions. Thereafter, the QPatch robot applies the test compound to the cell at the test concentration and, after 4 minutes of stimulation, the amplitude of IKhERG is recorded under test conditions. The ratio of the two amplitudes is used to define a fractional block and the average block on two cells is used to provide the effect of a given concentration (e.g. 10 μM). If, for a given test compound, a sufficient number of concentrations were tested, an apparent IC50 for inhibition of IKhERG is calculated.

In a further data set the test system is S. aureus A798. Description: Bacterial growth minimal inhibitory concentrations (microdilution, cation-adjusted Mueller-Hinton Broth). It counts as cell-based. Conditions: for MIC: Staphylococcus aureus. How it is done: Minimal inhibitory concentrations (MICs; mg/l) were determined in cation-adjusted Mueller-Hinton Broth by a microdilution method following the description given in “Methods for Dilution Antimicrobial Susceptibility Tests for Bacteria that Grow Aerobically”, Approved standard, 7th ed., Clinical and Laboratory Standards Institute (CLSI) Document M7-A7, Wayne, Pa., USA, 2006.
On the technique in general: Dilution methods test growth across graded concentrations, often in twofold steps.

[1] abbreviates: comparison table of compounds of formula ICOMP.

Chain of hERG K+ channel (Q12809 whole entry): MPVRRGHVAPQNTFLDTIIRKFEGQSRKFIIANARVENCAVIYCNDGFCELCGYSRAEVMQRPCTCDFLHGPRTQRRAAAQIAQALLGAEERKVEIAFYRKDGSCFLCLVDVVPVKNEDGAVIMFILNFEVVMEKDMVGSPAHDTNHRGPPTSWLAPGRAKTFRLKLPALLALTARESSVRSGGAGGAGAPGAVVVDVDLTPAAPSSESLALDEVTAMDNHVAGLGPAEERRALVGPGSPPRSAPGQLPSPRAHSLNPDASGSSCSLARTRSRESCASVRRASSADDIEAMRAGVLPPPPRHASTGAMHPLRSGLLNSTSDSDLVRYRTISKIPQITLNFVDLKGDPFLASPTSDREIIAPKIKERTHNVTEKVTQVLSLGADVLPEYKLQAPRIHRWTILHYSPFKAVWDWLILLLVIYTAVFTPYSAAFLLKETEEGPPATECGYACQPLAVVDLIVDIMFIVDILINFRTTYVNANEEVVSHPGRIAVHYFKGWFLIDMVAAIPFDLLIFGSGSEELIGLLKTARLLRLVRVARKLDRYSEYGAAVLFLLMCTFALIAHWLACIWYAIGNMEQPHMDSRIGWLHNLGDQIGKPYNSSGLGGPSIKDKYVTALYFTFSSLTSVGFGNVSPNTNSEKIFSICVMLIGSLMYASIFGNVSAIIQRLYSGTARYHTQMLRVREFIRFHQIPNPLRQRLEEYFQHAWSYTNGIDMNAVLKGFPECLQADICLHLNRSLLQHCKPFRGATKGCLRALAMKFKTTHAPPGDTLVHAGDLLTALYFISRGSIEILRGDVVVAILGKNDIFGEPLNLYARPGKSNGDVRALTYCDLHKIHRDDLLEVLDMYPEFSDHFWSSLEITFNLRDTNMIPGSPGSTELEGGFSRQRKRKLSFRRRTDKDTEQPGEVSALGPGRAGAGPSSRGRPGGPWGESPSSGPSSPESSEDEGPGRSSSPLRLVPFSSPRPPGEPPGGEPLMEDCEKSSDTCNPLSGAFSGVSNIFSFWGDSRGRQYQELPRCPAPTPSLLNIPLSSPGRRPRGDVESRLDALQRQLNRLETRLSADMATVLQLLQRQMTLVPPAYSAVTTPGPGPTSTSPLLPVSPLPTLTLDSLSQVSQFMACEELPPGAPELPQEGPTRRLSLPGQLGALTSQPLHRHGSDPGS

As for `COc1ccc2ncc(F)c(C[C@H](O)[C@@H]3CC[C@@H](NCc4cc5c(cn4)OCCO5)CO3)c2n1` [Example 3, (1S)-1-{(2S,5R)-5-[(2,3-dihydro-[1,4]dioxino[2,3-c]pyridin-7-ylmethyl)-amino]-tetrahydro-pyran-2-yl}-2-(3-fluoro-6-methoxy-[1,5]naphthyridin-4-yl)-ethanol], at hERG K+ channel, the inhibition at 4 min, 10 µM came to 29%. In the data set on S. aureus A798 (microdilution), the minimal inhibitory concentration (MIC) is not above 0.031 µg/mL. The “MIC for S. aureus A798” value against S. aureus A798 (setting [1]) is reported as “≦0.031 mg/l”.
In the same order, the values of `COc1ccc2nccc(C[C@H](O)[C@@H]3CC[C@@H](NCc4cc5c(cn4)OCCO5)CO3)c2n1` [Example 1, (1S)-1-{(2S,5R)-5-[(2,3-dihydro-[1,4]dioxino[2,3-c]pyridin-7-ylmethyl)-amino]tetrahydro-pyran-2-yl}-2-(6-methoxy-[1,5]naphthyridin-4-yl)-ethanol] are 26%, not above 0.031 µg/mL and “≦0.031 mg/l”.
For the compound `COc1ccc2ncc(F)c(C[C@H](O)[C@@H]3CC[C@@H](NCc4cc5c(nn4)OCCO5)CO3)c2n1` [Example 4, (1S)-1-{(2S,5R)-5-[(6,7-dihydro-[1,4]dioxino[2,3-c]pyridazin-3-ylmethyl)-amino]-tetrahydro-pyran-2-yl}-2-(3-fluoro-6-methoxy-[1,5]naphthyridin-4-yl)-ethanol], the inhibition at 4 min, 10 µM against hERG K+ channel came to 5%. In the data set with S. aureus A798 (microdilution), this compound gave an MIC not above 0.031 µg/mL. Further, the “MIC for S. aureus A798” value in the data set on S. aureus A798 (setting [1]) is recorded as “≦0.031 mg/l”.
`COc1ccc2ncc(F)c(CCC3CCC(NCc4cc5c(cn4)OCCO5)CO3)c2n1` (stereo not shown) [Reference Example No. 1, reference compound]: the inhibition at 4 min, 10 µM at hERG K+ channel was 77%. This compound also came in with an MIC in the data set on S. aureus A798 (setting [1]) not above 0.031 µg/mL.
`COc1ccc2ccc(F)c(C[C@H](O)[C@@H]3CC[C@@H](NCc4cc5c(cn4)OCCS5)CO3)c2n1` [Example 7, (1S)-1-{(2S,5R)-5-[(2,3-dihydro-4-oxa-1-thia-6-aza-naphthalen-7-ylmethyl)-amino]-tetrahydro-pyran-2-yl}-2-(7-fluoro-2-methoxy-quinolin-8-yl)-ethanol] displayed a minimum inhibitory concentration (MIC) against S. aureus A798 (microdilution) not above 0.031 µg/mL.
Same read-out and setting: with `[2H][C@](O)(Cc1c(F)cnc2ccc(OC)nc12)[C@@H]1CC[C@@H](NCc2cc3c(cn2)OCCO3)CO1` (single isomer, unassigned) [Example 18] the figure was not above 0.031 µg/mL.
